Data: article PMC7796107, “Efficient Separation of Phytochemicals from Muehlenbeckia volcanica (Benth.) Endl. by Polarity-Stepwise Elution Counter-Current Chromatography and Their Antioxidant, Antiglycation, and Aldose Reductase Inhibition Potentials” (Molecules, 2021)
Marks after values point to notes of the source that are not given here.

Key:
[1] = DPPH radical scavenging assay; type: biochemical; conditions: Trolox equivalent antioxidant capacity
Experimental: (§1) The antioxidant activities of the 70% methanol extract of M. volcanica and the separated compounds were evaluated using DPPH, ABTS, and ORAC assays. The results were expressed as Trolox equivalent antioxidant capacity (TEAC, µg Trolox/µg extract or µM Trolox/µM compound), which were calculated with the equations obtained from the calibration curves of Trolox standards (final concentrations) versus their DPPH and ABTS radical inhibition (%) and the net AUC value (ORAC assay).
The DPPH radical scavenging assay was carried out using an EL800 microplate reader (Bio-Tek Instruments, Winooski, VT, USA). Briefly, 180 μL of freshly prepared DPPH solution (0.32 mM in methanol) was mixed with 20 μL of sample (dissolved in methanol, extract 250 µg/mL; compounds 62.5–1000 µM) in a 96-well plate. The mixture was incubated for 20 min in the dark at 25 °C, and then, the absorbance was measured at […]. […] Results are expressed in µg Trolox equivalents/µg extract or µM Trolox equivalents/µM compound. The DPPH radical scavenging activity (%) is calculated using Equation (1):(1) %inhibition=1−Asample−Ablank1/Acontrol−Ablank2×100%, where Asample is the absorbance of DPPH solution with a sample, Ablank1 is the absorbance of the test sample without DPPH, Acontrol is the absorbance of DPPH solution without a sample, Ablank2 is the absorbance of methanol, without DPPH or a sample.

[2] = ABTS radical scavenging assay; type: biochemical; conditions: Trolox equivalent antioxidant capacity
Experimental: as §1
The ABTS radical scavenging assay was carried out using the same EL800 microplate reader. Briefly, 0.2 mM of ABTS diammonium salt was prepared in 3.5 mM of potassium persulfate aqueous solution, and the mixture solution was then diluted 10 times using distilled water. The diluted solution was allowed to stand for 24 h in the dark at room temperature (about 25 °C) to produce ABTS radical cations (ABTS^+). For reaction, 290 μL of ABTS^+ solution was mixed with 10 μL of sample (dissolved in methanol, extract 62.5–125 µg/mL; compounds 20–250 µM) in a 96-well plate, and the mixture solution was allowed to react for 10 min at 25 °C in the dark. Then, the absorbance was measured at 750 nm. […] Results are expressed in µg Trolox equivalents/µg extract or µM Trolox equivalents/µM compound. The ABTS radical scavenging activity (%) is calculated using Equation (1) where Asample is the absorbance of ABTS^+ solution with a sample, Ablank1 is the absorbance of the test sample without ABTS^+, Acontrol is the absorbance of ABTS^+ solution without a sample, Ablank2 is the absorbance of buffer, without ABTS^+ or a sample.

[3] = ORAC (oxygen radical absorbance capacity) assay; type: biochemical; conditions: Trolox equivalent antioxidant capacity, ORAC assay (peroxyl radicals)
Experimental: as §1
The ORAC assay was carried out using a Fluoroskan Ascent FL microplate reader (Thermo, Waltham, MA, USA) using the method described previously with minor modifications. Antioxidants can scavenge the peroxyl radicals generated by AAPH, which prevent the degradation of the fluorescein and, therefore, prevent the loss of the fluorescence of fluorescein. Briefly, fluorescein sodium salt (117 nM) and AAPH (40 mM) were freshly prepared in 0.1 M phosphate-buffered saline (PBS, pH 7.4). For reaction, 120 µL of fluorescein sodium salt (117 nM) and 20 µL of sample (dissolved in methanol, extract 10–20 µg/mL; compounds 10–160 µM) were mixed in a black 96-well plate and pre-incubated for 15 min at 37 °C. Next, 60 µL of AAPH (40 mM) was added, and the fluorescence was measured 100 times (interval 1 min) at excitation and emission wavelengths of 485 nm and 538 nm, respectively, by the microplate reader maintained at 37 °C. […] The relative ORAC values are expressed in µg Trolox equivalents/µg extract or µM Trolox equivalents/µM compound.

aldose reductase (AR) = biological target: T1, aldose reductase (AR) (Rattus norvegicus, UniProt P07943); experiment: Aldose reductase (AR) inhibition assay, rat lens homogenate; type: biochemical, Sprague–Dawley rats
T1 construct: centrifuged at 10,000× g for 30 min at 4 °C (Centrifuge 5417R, Eppendorf, Germany) to obtain AR homogenate (in the supernatant); from tissue; host or cells: eye lenses of Sprague–Dawley rats
Experimental: For the extraction of AR, the rat eye lenses were grounded in a precooled mortar (−70 °C) and extracted using 0.1 M PBS (pH 6.2; about 0.5 mL of PBS per two frozen rat lenses).
A 96-well plate-based AR inhibition assay was used in this study, which was modified from a previous method. In principle, the rate of the absorbance decrease of NADPH at 340 nm (OD340 nm) was used for evaluation of the AR inhibitory activity. […] Then, as soon as 20 μL of the substrate (DL-glyceraldehyde dimer, 25 mM in 0.1 M PBS, pH 7.0) was added, the absorbance of the reaction solution at 340 nm was measured for 6 min using an Epoch microplate spectrophotometer (BioTek Instruments, Highland Park, IL, USA). […] The samples were first prepared at high concentrations in DMSO or in a mixture of DMSO and water and then diluted using water shortly before the experiment. The concentration of DMSO was kept within 0.2% (v/v) in the reaction system. […] The AR inhibition ratio (%) for the samples was calculated using Equation (4):(4) %inhibition=1−Slopes−Slopeb/Slopec−Slopeb×100%, where Slopec, Slopes, and Slopeb are the slopes obtained from the OD340 nm versus the reaction time (min) dotted lines of the control group (without sample), sample group (with enzyme and sample), and blank group (without enzyme or sample), respectively. |Slope| is the absolute value of Slope.

[4] = system: streptozotocin-induced diabetic rats; conditions: cited from earlier work
[5] = cited from earlier work
human erythrocytes = system: human erythrocytes; design: method as in earlier work; conditions: high glucose conditions; cited from earlier work
diabetic rats = conditions: cited from earlier work
[6] = system: streptozotocin-induced diabetic cats; conditions: cited from earlier work
[7] = biological target: fructose-mediated bovine serum albumin (BSA) glycation (Bos taurus, UniProt P02769); experiment: Antiglycation assay, fructose-mediated BSA glycation model
Experimental: The antiglycation assay was carried out using a fructose-mediated BSA glycation model as reported previously [43] with minor modifications. […] Then, 200 µL of the reaction solution from each sample was pipetted to black 96-well plates to determine the fluorescent AGEs using a microplate fluorescence reader (BIOTEK-FLx800, Winooski, VT, USA) at excitation and emission wavelengths of 360 ± 20 nm and 460 ± 20 nm, respectively. Aminoguanidine [25], a synthetic antiglycation agent, was used as a positive control with final concentrations of 200 µg/mL to 800 µg/mL or 1 mM to 4 mM.

[8] = read-out: Antiglycation activity, inhibition (%)

fructose-mediated bovine serum albumin (BSA) glycation, sequence (P02769 25-607): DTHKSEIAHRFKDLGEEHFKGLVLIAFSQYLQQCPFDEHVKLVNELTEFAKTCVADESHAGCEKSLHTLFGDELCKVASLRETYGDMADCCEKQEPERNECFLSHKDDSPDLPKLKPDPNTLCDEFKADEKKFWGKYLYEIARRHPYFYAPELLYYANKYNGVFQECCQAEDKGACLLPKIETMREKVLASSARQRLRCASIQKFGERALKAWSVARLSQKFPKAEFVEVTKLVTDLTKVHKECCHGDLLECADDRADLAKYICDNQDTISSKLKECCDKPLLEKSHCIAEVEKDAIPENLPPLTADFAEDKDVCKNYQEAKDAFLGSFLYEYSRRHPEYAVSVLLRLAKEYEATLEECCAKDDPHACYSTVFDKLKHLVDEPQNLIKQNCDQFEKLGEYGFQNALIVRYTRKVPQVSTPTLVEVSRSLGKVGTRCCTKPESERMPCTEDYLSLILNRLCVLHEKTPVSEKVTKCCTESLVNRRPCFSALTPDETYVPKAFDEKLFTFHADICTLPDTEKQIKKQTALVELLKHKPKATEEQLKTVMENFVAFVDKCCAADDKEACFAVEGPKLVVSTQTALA

With `C[C@@H]1O[C@@H](OC[C@H]2O[C@@H](Oc3c(-c4ccc(O)c(O)c4)oc4cc(O)cc(O)c4c3=O)[C@H](O)[C@@H](O)[C@@H]2O)[C@H](O)[C@H](O)[C@H]1O` [Rutin (8), rutin] the “TEAC, DPPH” value [1] was 0.90 ± 0.09 ^e µM trolox/µM Compound, the “TEAC, ABTS” value [2] was 1.12 ± 0.04 ^d µM trolox/µM Compound and the “TEAC, ORAC” value [3] was 5.77 ± 0.08 ^b µM trolox/µM Compound. The inhibition at 3.125 µM (aldose reductase (AR); 3.125 µM, read-out: AR inhibition activity, inhibition (%)) was 46.4 ± 1.21%, the inhibition at 6.25 µM (aldose reductase (AR); 6.25 µM, read-out: AR inhibition activity, inhibition (%)) was 62.79 ± 0.3% and the inhibition at 12.5 µM (aldose reductase (AR); 12.5 µM, read-out: AR inhibition activity, inhibition (%)) was 75.2 ± 0.9%. The inhibition at 25 µM (aldose reductase (AR); 25 µM, read-out: AR inhibition activity, inhibition (%)) was 84.5 ± 1.51%, the IC50 (aldose reductase (AR); rat lens AR homogenate) was 3.51 ± 0.12 µM and the “Effect on oxidative stress” value [4] was “ameliorate the oxidative stress”. For the same compound, the “Inhibition of AGEs by trapping methylglyoxal” value [5] was “inhibit AGEs by trapping methylglyoxal”, the “Accumulation of sorbitol in human erythrocytes” value (human erythrocytes) was “suppress the accumulation of sorbitol” and the “Progression of lens opacification” value (diabetic rats) was “delay the progression of lens opacification”. For the same compound, the Impaired cardiac function [6] was “partially reverse the impaired cardiac function”, the IC50 [7] was 20.1 ± 0.23 µM and the inhibition at 12.5 µM [7, 8] was 30.8 ± 1.1%. For the same compound, the inhibition at 25 µM [7, 8] was 61.7 ± 2.49%, the inhibition at 50 µM [7, 8] was 81.82 ± 0.65% and the inhibition at 100 µM [7, 8] was 91.51 ± 0.4%.
